{
  "source": "patent US8895538B2",
  "about": "“Combination and composition that contains an antimicrobial, a glucocorticoid and an antimycotic” (Laboratories Senosiain S.A. de C.V., priority 2009, dated 2014)",
  "key": {"[1]": {"conditions": "cited from earlier work"}, "mice": {"tested_on": "mice", "conditions": "administered orally; cited from earlier work"}, "rats": {"tested_on": "rats", "conditions": "administered orally; cited from earlier work"}, "[2]": {"conditions": "in vivo; cited from earlier work"}, "[3]": {"assay": "Laboratory assays of sensitivity, solubility and stability of the active agents at different pH conditions", "assay_type": "physicochemical", "experimental": "Laboratory assays were carried out for verifying the sensitivity, solubility and stability of the active agents at different pH conditions. Thus, their stability was tested at different pH conditions. Due to the sensitivity of the active agents, the addition order of these components, as well as the excipient and vehicle selection are of great importance for avoiding degradation or incompatibilities of said active agents."}},
  "data": [
    {"smiles": "C[C@H]1C[C@H]2[C@@H]3CCC4=CC(=O)C=C[C@]4(C)[C@@]3(F)[C@@H](O)C[C@]2(C)[C@@]1(O)C(=O)CO", "note": "[Betametasone]", "values": [
      {"measurement": "solubility in water", "setting": "[1]; water", "value": "almost insoluble"}
    ]},
    {"smiles": "Clc1ccccc1C(c1ccccc1)(c1ccccc1)n1ccnc1", "note": "[Clotrimazole]", "values": [
      {"measurement": "LD50", "setting": "mice", "value": 923, "unit": "mg/kg"},
      {"measurement": "hydrolysis in acid solution at high temperature", "setting": "[1]; acid solution, high temperature", "value": "rapidly hydrolised"},
      {"measurement": "LD50", "setting": "rats", "value": 708, "unit": "mg/kg"},
      {"measurement": "absorbed in topical applications", "setting": "[2]", "value": "3-10 % of the dose"}
    ]},
    {"smiles": "CC(=O)O[C@H]1C[C@@]2(C)[C@@H](C[C@@H](O)[C@H]3[C@@]4(C)CC[C@@H](O)[C@@H](C)[C@@H]4CC[C@@]32C)/C1=C(\\CCC=C(C)C)C(=O)O", "note": "[Fusidic acid]", "values": [
      {"measurement": "stability in the presence of acid substances", "setting": "[3]", "value": "greatly reduced"}
    ]}
  ]
}
